# What was measured:
# [1] = target: T1, PTP1B (human recombinant) (Homo sapiens, UniProt P18031); test: PTP1B inhibitory activity assay with p-NPP as substrate; format: biochemical; details: for IC50: p-NPP 4 mM, pH 6.0, 37 °C, 30 min, means ± SD, n = 3, NA = no activity >50 μM, read-out: IC50 against PTP1B
# T1 construct: purchased Enzo Life Sciences, Inc. (Lausen, Switzerland)
# T1 sequence (P18031 1-435): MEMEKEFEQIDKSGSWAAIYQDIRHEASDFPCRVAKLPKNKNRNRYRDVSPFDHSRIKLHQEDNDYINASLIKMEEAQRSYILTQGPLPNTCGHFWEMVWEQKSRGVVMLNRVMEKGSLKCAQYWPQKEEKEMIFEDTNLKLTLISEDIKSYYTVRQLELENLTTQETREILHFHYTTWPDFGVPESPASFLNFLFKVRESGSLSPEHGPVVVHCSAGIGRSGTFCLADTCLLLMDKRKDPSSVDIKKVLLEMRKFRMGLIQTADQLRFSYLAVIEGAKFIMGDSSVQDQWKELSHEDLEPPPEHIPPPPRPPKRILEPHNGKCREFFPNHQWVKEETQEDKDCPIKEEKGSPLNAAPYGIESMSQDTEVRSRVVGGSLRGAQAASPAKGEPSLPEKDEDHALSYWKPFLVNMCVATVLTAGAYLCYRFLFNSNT
# Experimental: (§1) PTP1B inhibitory activity was measured using p-NPP as the substrate. A mixture consisting of p-NPP and PTP1B in a buffer containing 0.06 M citrate (pH 6.0), 0.1 M NaCl, 1 mM EDTA, and 1 mM DTT with or without a tested compound solution (prepared in the above buffer solution containing 30% dimethyl sulfoxide), was incubated at 37 °C for 30 min. The substrate was used at a concentration of 4 mM. The reaction was terminated by adding 20 µL of 10 M NaOH. The reaction mixture was blended by a microplate mixer for 5 min and the amount of produced p-nitrophenol was tested by measuring the absorbance at 405 nm. The blank was measured in the same way except adding a buffer solution instead of the enzyme.
# [2] = target: T1, PTP1B (human recombinant); test: Kinetic analysis of PTP1B inhibition (Lineweaver–Burk, secondary plot); format: biochemical; details: for Inhibition type: Lineweaver–Burk, p-NPP 4, 8, 16 mM; for Ki: secondary plot of Lineweaver–Burk slopes
# Experimental: as §1, with “enzyme. […] All compounds used for bioassay were confirmed the purity >98% by HPLC-PDA and ^1H NMR spectroscopic analyses.” for “enzyme.”
# To elucidate the inhibition mode, the inhibition kinetics of compounds 1–5 were analyzed by the Lineweaver–Burk method with various substrate concentrations of p-NPP (4, 8, 16 mM). The initial reaction velocities were measured with and without the inhibitor.
# (A) Lineweaver–Burk plots of compounds 1–5. The final concentration of compounds 1–5 was as follows: 1; 0, 1.0, 2.0, and 3.0 μM, 2; 0, 4.0, 6.0, and 8.0 μM, 3; 0, 1.3, 2.5, and 3.0 μM, 4; 0, 1.0, 2.0, and 3.0 μM, and 5; 0, 4.0, 6.0, and 8.0 μM. (B) The second plots of A.
# [3] = target: T2, T-cell protein tyrosine phosphatase (TCPTP, human recombinant) (Homo sapiens, UniProt P17706); test: TCPTP inhibitory activity assay with p-NPP; format: biochemical; details: mean ± SD, three experiments, read-out: Inhibition rate (%) TCPTP
# T2 construct: purchased Enzo Life Sciences, Inc. (Lausen, Switzerland)
# T2 sequence (P17706 1-415): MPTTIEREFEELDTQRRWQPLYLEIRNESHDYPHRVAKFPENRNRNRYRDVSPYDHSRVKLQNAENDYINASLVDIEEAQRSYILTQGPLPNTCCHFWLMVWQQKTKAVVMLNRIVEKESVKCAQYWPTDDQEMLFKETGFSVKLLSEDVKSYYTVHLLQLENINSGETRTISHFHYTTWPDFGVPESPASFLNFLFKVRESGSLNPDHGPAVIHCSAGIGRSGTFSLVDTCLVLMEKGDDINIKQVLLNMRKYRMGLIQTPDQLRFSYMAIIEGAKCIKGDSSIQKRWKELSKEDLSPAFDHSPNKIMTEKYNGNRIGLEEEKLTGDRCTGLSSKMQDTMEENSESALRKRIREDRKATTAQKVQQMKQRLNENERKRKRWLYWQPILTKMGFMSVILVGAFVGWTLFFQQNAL
# [4] = target: T3, Vaccinia H1-related phosphatase (VHR, human recombinant) (Homo sapiens, UniProt P51452); test: biochemical; details: read-out: Inhibition rate (%) VHR
# T3 construct: purchased Enzo Life Sciences, Inc. (Lausen, Switzerland)
# T3 sequence (P51452 whole entry): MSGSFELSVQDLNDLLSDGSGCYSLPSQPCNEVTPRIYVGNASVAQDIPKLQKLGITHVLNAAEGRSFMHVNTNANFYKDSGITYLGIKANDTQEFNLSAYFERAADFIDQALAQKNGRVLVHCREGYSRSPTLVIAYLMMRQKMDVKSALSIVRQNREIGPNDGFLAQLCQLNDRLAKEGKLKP
# [5] = target: T4, SHP-1 (human recombinant) (Homo sapiens, UniProt P29350); test: SHP-1 inhibitory activity assay with p-NPP; format: biochemical; details: mean ± SD, three experiments, read-out: Inhibition rate (%) SHP-1
# T4 construct: purchased Sigma-Aldrich Co., LLC; (St Louis, MO)
# T4 sequence (P29350 whole entry): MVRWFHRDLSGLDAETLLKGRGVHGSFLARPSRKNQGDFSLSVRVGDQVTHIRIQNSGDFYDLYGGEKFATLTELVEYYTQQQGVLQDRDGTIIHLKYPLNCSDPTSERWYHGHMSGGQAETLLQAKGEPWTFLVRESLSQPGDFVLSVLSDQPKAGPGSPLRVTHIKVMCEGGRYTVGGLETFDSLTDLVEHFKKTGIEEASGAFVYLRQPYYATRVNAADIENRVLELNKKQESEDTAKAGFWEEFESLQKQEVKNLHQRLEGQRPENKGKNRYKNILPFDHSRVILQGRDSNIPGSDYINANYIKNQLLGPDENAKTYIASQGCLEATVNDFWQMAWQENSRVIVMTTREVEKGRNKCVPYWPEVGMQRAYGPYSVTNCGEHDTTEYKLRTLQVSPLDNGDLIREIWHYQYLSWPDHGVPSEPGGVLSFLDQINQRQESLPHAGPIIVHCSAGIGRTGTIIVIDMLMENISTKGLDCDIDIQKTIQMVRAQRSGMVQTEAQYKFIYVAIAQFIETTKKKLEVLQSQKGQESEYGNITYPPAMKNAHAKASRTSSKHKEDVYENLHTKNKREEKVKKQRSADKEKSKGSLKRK
# [6] = target: T5, SHP-2 (human recombinant) (Homo sapiens, UniProt Q06124); test: SHP-2 inhibitory activity assay with p-NPP; format: biochemical; details: mean ± SD, three experiments, read-out: Inhibition rate (%) SHP-2
# T5 construct: purchased Sigma-Aldrich Co., LLC; (St Louis, MO)
# T5 sequence (Q06124 1-593): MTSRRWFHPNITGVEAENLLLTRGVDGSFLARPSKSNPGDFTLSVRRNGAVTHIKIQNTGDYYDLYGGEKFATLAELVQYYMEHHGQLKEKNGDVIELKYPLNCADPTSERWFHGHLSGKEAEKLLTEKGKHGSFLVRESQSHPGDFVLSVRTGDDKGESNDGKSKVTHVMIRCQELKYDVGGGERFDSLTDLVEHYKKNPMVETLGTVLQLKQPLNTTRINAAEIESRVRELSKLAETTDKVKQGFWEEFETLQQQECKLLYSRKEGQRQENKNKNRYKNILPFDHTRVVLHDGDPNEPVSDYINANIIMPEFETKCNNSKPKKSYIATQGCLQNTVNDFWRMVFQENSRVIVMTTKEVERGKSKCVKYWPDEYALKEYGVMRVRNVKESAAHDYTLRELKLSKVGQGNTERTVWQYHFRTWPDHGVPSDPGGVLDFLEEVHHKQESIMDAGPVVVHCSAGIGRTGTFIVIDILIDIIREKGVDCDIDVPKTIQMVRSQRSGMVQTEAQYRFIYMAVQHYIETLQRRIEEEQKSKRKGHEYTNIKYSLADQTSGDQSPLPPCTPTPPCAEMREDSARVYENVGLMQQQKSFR
# [7] = mean ± SD, three experiments, read-out: Inhibition rate (%) PTP1B
smiles,measurement,setting,value
"COc1cc([C@H]2Oc3cc([C@H]4Oc5cc(O)cc(O)c5C(=O)[C@@H]4O)ccc3O[C@@H]2CO)ccc1O [Compound 1, Silybin A]",inhibition at 4 µM,[1]; [7],90.3 ± 0.9%
same,IC50,[1],1.54 ± 0.22 µM
same,Inhibition type,[2],Non-competitive
same,Ki,[2],1.25 µM
same,inhibition at 4 µM,[3],15.7 ± 1.9%
same,inhibition at 4 µM,[4],60.6 ± 2.2%
same,inhibition at 4 µM,[5],33.4 ± 0.4%
same,inhibition at 4 µM,[6],32.7 ± 1.8%
"COc1cc([C@@H]2Oc3cc([C@H]4Oc5cc(O)cc(O)c5C(=O)[C@@H]4O)ccc3O[C@H]2CO)ccc1O [Compound 2, Silybin B]",inhibition at 12 µM,"[1]; 12 μM, mean ± SD, three experiments, read-out: Inhibition rate (%) PTP1B",89 ± 2.1%
same,IC50,[1],5.65 ± 0.2 µM
same,Inhibition type,[2],Non-competitive
same,Ki,[2],4.05 µM
same,inhibition at 12 µM,[3]; 12 μM,32.1 ± 2.3%
same,inhibition at 12 µM,[4],65.6 ± 4.2%
same,inhibition at 12 µM,[5]; 12 μM,34.4 ± 1.9%
same,inhibition at 12 µM,[6]; 12 μM,37.5 ± 2.2%
"COc1cc([C@H]2Oc3ccc([C@H]4Oc5cc(O)cc(O)c5C(=O)[C@@H]4O)cc3O[C@@H]2CO)ccc1O [Compound 3, Isosilybin A]",inhibition at 6 µM,"[1]; 6.0 μM, mean ± SD, three experiments, read-out: Inhibition rate (%) PTP1B",90.7 ± 1.1%
same,IC50,[1],2.65 ± 0.13 µM
same,Inhibition type,[2],Non-competitive
same,Ki,[2],2.25 µM
same,inhibition at 6 µM,[3]; 6.0 μM,27.5 ± 0.8%
same,inhibition at 6 µM,[4],59.2 ± 2.4%
same,inhibition at 6 µM,[5]; 6.0 μM,30.6 ± 1.8%
same,inhibition at 6 µM,[6]; 6.0 μM,49 ± 2.1%
"COc1cc([C@@H]2Oc3ccc([C@H]4Oc5cc(O)cc(O)c5C(=O)[C@@H]4O)cc3O[C@H]2CO)ccc1O [Compound 4, Isosilybin B]",inhibition at 4 µM,[1]; [7],92.1 ± 1.7%
same,IC50,[1],1.37 ± 0.22 µM
same,Inhibition type,[2],Non-competitive
same,Ki,[2],1.03 µM
same,inhibition at 4 µM,[3],16.4 ± 1.5%
same,inhibition at 4 µM,[4],61.4 ± 3%
same,inhibition at 4 µM,[5],22.9 ± 2.1%
same,inhibition at 4 µM,[6],50.1 ± 1.5%
"COc1cc([C@@H]2Oc3c(O)cc([C@H]4Oc5cc(O)cc(O)c5C(=O)[C@@H]4O)cc3[C@H]2CO)ccc1O [Compound 5, Silychristin A]",inhibition at 20 µM,"[1]; 20 μM, mean ± SD, three experiments, read-out: Inhibition rate (%) PTP1B",89.2 ± 2.6%
same,IC50,[1],5.58 ± 0.33 µM
same,Inhibition type,[2],Non-competitive
same,Ki,[2],3.95 µM
same,inhibition at 20 µM,[3]; 20 μM,32.2 ± 1.9%
same,inhibition at 20 µM,[4],67.5 ± 1.4%
same,inhibition at 20 µM,[5]; 20 μM,25.9 ± 1.4%
same,inhibition at 20 µM,[6]; 20 μM,48.6 ± 1.9%
"COc1cc([C@H]2Oc3c(O)cc([C@H]4Oc5cc(O)cc(O)c5C(=O)[C@@H]4O)cc3[C@@H]2CO)ccc1O [Compound 6, Silychristin B]",IC50,[1],23.9 ± 2.25 µM
"COc1cc([C@@H]2Oc3c(O)ccc([C@H]4Oc5cc(O)cc(O)c5C(=O)[C@@H]4O)c3[C@H]2CO)ccc1O [Compound 7, Isosilychristin A]",IC50,[1],6.55 ± 0.09 µM
"COc1cc([C@@H]2Oc3c(O)cc(-c4oc5cc(O)cc(O)c5c(=O)c4O)cc3[C@H]2CO)ccc1O [Compound 8, Dehydrosilychristin A]",IC50,[1],7.18 ± 0.12 µM
"COc1cc([C@@H]2[C@H]3CO[C@@]4(O)C(=O)[C@@H]2C=C([C@H]2Oc5cc(O)cc(O)c5C(=O)[C@@H]2O)[C@@H]34)ccc1O [Compound 9, Silydianin]",IC50,[1],> 50 µM
"COc1cc(C2C3C=C(c4oc5cc(O)cc(O)c5c(=O)c4O)C4C2COC4(O)C3=O)ccc1O (stereo not shown) [Compound 10, Dehydrosilydianin]",IC50,[1],> 50 µM
"COc1cc(C2C(C(=O)O)C=C(C3Oc4cc(O)cc(O)c4C(=O)C3O)C3C(=O)OCC32)ccc1O (stereo not shown) [Compound 11, Silyamandin]",IC50,[1],17.4 ± 0.67 µM
